How the values were obtained:
[1] = Calcein AM cytotoxicity assay, B10A.4 cells; details: mouse; for CC50 at 72 h: b10a.4 macrophages
Description: (§1) All compound concentrations were examined in duplicates. […] Zero cytotoxicity is a basic prerequisite for the use of these substances in cosmetical applications. To assess the antitumor activity, the toxicity of new derivatives on panels containing cell lines of different histogenic and species origin was tested (Table 5). […] The compounds listed in Table 5 can be divided into 2 groups.
(§2) The first group contains "classical cytokinins" represented by 6-substituted purines (their effects are already known). The second group includes novel 2-fluoro-N6-substituted-9-(2-oxacycloalkyl)-9H-purine-6-amine derivatives. […] Low cytotoxicity (high IC50 value) of the compounds is the basic prerequisite for cosmetic and medical applications. […] Table 5: Cytotoxicity of novel compounds for different normal cell lines tested / IC50 (µmol/L)

[2] = Calcein AM cytotoxicity assay, BJ cells; details: human; for CC50 at 72 h: bj fibroblasts
Description: as §1, §2

[3] = Calcein AM cytotoxicity assay, NIH3T3 cells; details: mouse; for CC50 at 72 h: nih3t3 cells
Description: as §1, §2

excised wheat leaf tips = assay: Senescence inhibition on winter wheat leaf segments (chlorophyll retention); design: species or system Triticum aestivum cv. Hereward; details: for Concentration with highest activity: retention of chlorophyll; for Activity (%) [10^-4mol.l^-1 KTHP = 100%] / Emax: retention of chlorophyll in excised wheat leaf tips, 96 h in the dark, at concentration with highest activity; for Emax: Triticum aestivum, foliar, read-out: Activity (%) [10^-4mol.l^-1 KTHP = 100%]
Description: Seeds of winter wheat, Triticum aestivum cv. Hereward, were washed under running water for 24 hours and then sown on vermiculite soaked with the Knop's solution. They were placed in the grow chamber at 25 °C with a 16/8 h light period at 50 μmol.m^-2.s^-1. After 7 days, the first leaf was fully developed and the second leaf had started to grow. A tip section of the first leaf, approximately 35 mm long, was removed from 5 seedlings and trimmed slightly to a combined weight of 100 mg. The basal ends of the five leaf tips were placed in the wells of a microtiter polystyrene plate containing 150 μl of the solution of the tested compound each. The entire plate was inserted into a plastic box lined with paper tissues soaked with distilled water to prevent leaf sections from drying out. […] The absorbance of the extract was recorded at 665 nm. In addition, chlorophyll extracts from fresh leaves and leaf tips incubated in deionised water were measured. From the obtained data, the concetration with the highest activity was selected for each compound tested. Relative activity of the compound at this concentration was calculated (Table 7). […] The values shown are means of five replicates and the whole experiment was repeated twice. The compounds to be tested were dissolved in dimethylsulfoxide (DMSO) and the solution brought up to 10^-3 M with distilled water. […] The compounds listed in Table 7 can be divided into 2 groups. The first group contains "classical 6,9-disubstituted purines (KTHP as a control)" known in prior art. […] Table 9: […]

[4] = Cytotoxicity IC50, B10A.4, first column headed B10A.4
[5] = Cytotoxicity IC50, B10A.4, second column headed B10A.4

| SMILES | IC50 at 72 h [1, 4] | IC50 at 72 h [1, 5] | IC50 at 72 h [2] | IC50 at 72 h [3] | CC50 at 72 h [1, 4] | CC50 at 72 h [2] | CC50 at 72 h [3] | Concentration with highest activity (excised wheat leaf tips) | Activity (%) [10^-4mol.l^-1 KTHP = 100%] (excised wheat leaf tips) | CC50 at 72 h [1, 5] | Emax (excised wheat leaf tips) |
| --- | --- | --- | --- | --- | --- | --- | --- | --- | --- | --- | --- |
| Nc1ncnc2nc[nH]c12 [Adenine, reference compound] | > 167 µM | > 167 µM | > 167 µM | > 167 µM |  |  |  |  |  |  |  |
| CC(CO)CCNc1nc(F)nc2c1ncn2C1CCCO1 (stereo not shown) [Compound 11] |  |  |  |  | 146 µM | > 167 µM | 139 µM | 10^-4 mol.l^-1 | 125 (± 12) % |  |  |
| Oc1ccccc1CNc1nc(F)nc2c1ncn2C1CCCO1 (stereo not shown) [Compound 14] |  |  |  |  | > 167 µM | > 167 µM | > 167 µM | 10^-4 mol.l^-1 | 53.6 (± 7) % | > 167 µM |  |
| Oc1ccc(CNc2nc(F)nc3c2ncn3C2CCCO2)cc1 (stereo not shown) [Compound 16, 2-Fluoro-6-[(4-hydroxybenzyl)amino]-9-(tetrahydrofuran-2-yl)-9H-purine] | > 167 µM |  | > 167 µM | > 167 µM |  |  |  |  |  |  | 110% |
| COc1cccc(CNc2nc(F)nc3c2ncn3C2CCCO2)c1O (stereo not shown) [Compound 20] |  |  |  |  | 124 µM | 137 µM | > 141 µM | 10^-4 mol.l^-1 | 50 (± 5) % | 126 µM |  |
| COc1ccc(CNc2nc(F)nc3c2ncn3C2CCCO2)c(O)c1 (stereo not shown) [Compound 21] |  |  |  |  | 147 µM | 132 µM | 158 µM | 10^-4 mol.l^-1 | 35 (± 9.5) % |  |  |
| Oc1ccc(CNc2nc(F)nc3c2ncn3C2CCCO2)cc1O (stereo not shown) [Compound 33] |  |  |  |  | > 167 µM | > 167 µM | > 167 µM | 10^-4 mol.l^-1 | 71.3 (± 17) % |  |  |
| Oc1cc(O)cc(CNc2nc(F)nc3c2ncn3C2CCCO2)c1 (stereo not shown) [Compound 34] |  |  |  |  | > 167 µM | > 167 µM | > 167 µM | 10^-4 mol.l^-1 | 145 (± 12) % |  |  |
| COc1ccc(CNc2nc(F)nc3c2ncn3C2CCCO2)c(OC)c1 (stereo not shown) [Compound 36] |  |  |  |  | > 167 µM | > 167 µM | > 167 µM | 10^-4 mol.l^-1 | 125.6 (± 15) % |  |  |
| COc1ccc(OC)c(CNc2nc(F)nc3c2ncn3C2CCCO2)c1 (stereo not shown) [Compound 37] |  |  |  |  | > 167 µM | > 167 µM | > 167 µM | 10^-4 mol.l^-1 | 121.8 (± 17) % |  |  |
| COc1cccc(OC)c1CNc1nc(F)nc2c1ncn2C1CCCO1 (stereo not shown) [Compound 38] |  |  |  |  | > 167 µM | > 167 µM | > 167 µM | 10^-4 mol.l^-1 | 128 (± 16) % |  |  |
| COc1ccc(CNc2nc(F)nc3c2ncn3C2CCCO2)cc1OC (stereo not shown) [Compound 39] |  |  |  |  | > 167 µM | > 167 µM | > 167 µM | 10^-4 mol.l^-1 | 126 (± 21) % |  |  |
| COc1cc(CNc2nc(F)nc3c2ncn3C2CCCO2)cc(OC)c1 (stereo not shown) [Compound 40] |  |  |  |  | > 167 µM | > 167 µM | > 167 µM | 10^-4 mol.l^-1 | 163 (± 8) % |  |  |
| COc1cc(CNc2nc(F)nc3c2ncn3C2CCCO2)cc(OC)c1O (stereo not shown) [Compound 41] |  |  |  |  | > 167 µM | > 167 µM | > 167 µM | 10^-4 mol.l^-1 | 42 (± 13) % |  |  |
| COc1cc(O)cc(OC)c1CNc1nc(F)nc2c1ncn2C1CCCO1 (stereo not shown) [Compound 42] |  |  |  |  | > 167 µM | > 167 µM | > 167 µM | 10^-4 mol.l^-1 | 22 (± 4) % |  |  |
| COc1cc(CNc2nc(F)nc3c2ncn3C2CCCO2)ccc1O (stereo not shown) [Compound 43, 2-Fluoro-6-[(4-hydroxy-3-methoxybenzyl)amino]-9-(tetrahydrofuran-2-yl)-9H-purine] | > 167 µM |  | > 167 µM | > 167 µM |  |  |  |  |  |  | 55% |

| SMILES | IC50 at 72 h [1, 4] | IC50 at 72 h [1, 5] | IC50 at 72 h [2] | IC50 at 72 h [3] | CC50 at 72 h [1, 4] | CC50 at 72 h [2] | CC50 at 72 h [3] | Concentration with highest activity (excised wheat leaf tips) | Activity (%) [10^-4mol.l^-1 KTHP = 100%] (excised wheat leaf tips) | CC50 at 72 h [1, 5] | Emax (excised wheat leaf tips) |
| --- | --- | --- | --- | --- | --- | --- | --- | --- | --- | --- | --- |
| COc1cc(O)cc(CNc2nc(F)nc3c2ncn3C2CCCO2)c1 (stereo not shown) [Compound 44] |  |  |  |  | > 167 µM | > 167 µM | > 167 µM | 10^-4 mol.l^-1 | 47 (± 11) % |  |  |
| Cc1cccc(CNc2nc(F)nc3c2ncn3C2CCCO2)c1O (stereo not shown) [Compound 49] |  |  |  |  | 156 µM | 161 µM | > 167 µM | 10^-4 mol.l^-1 | 16.4 (± 3) % |  |  |
| Cc1ccc(O)c(CNc2nc(F)nc3c2ncn3C2CCCO2)c1 (stereo not shown) [Compound 50] |  |  |  |  | > 167 µM | > 167 µM | > 167 µM | 10^-4 mol.l^-1 | 82 (± 12) % |  |  |
| Cc1cc(CNc2nc(F)nc3c2ncn3C2CCCO2)ccc1O (stereo not shown) [Compound 51] |  |  |  |  | > 167 µM | > 167 µM | > 167 µM | 10^-4 mol.l^-1 | 19 (± 2) % |  |  |
| Cc1cc(O)cc(CNc2nc(F)nc3c2ncn3C2CCCO2)c1 (stereo not shown) [Compound 52] |  |  |  |  | > 167 µM | > 167 µM | > 167 µM | 10^-4 mol.l^-1 | 23 (± 1) % |  |  |
| Oc1ccoc1CNc1nc(F)nc2c1ncn2C1CCCO1 (stereo not shown) [Compound 53] |  |  |  |  | > 167 µM | > 167 µM | > 167 µM | 10^-4 mol.l^-1 | 45 (± 13) % |  |  |
| Oc1ccc(CNc2nc(F)nc3c2ncn3C2CCCO2)o1 (stereo not shown) [Compound 55] |  |  |  |  | > 167 µM | > 167 µM | > 167 µM | 10^-4 mol.l^-1 | 101 (± 17) % |  |  |
| Cc1ccc(CNc2nc(F)nc3c2ncn3C2CCCCO2)o1 (stereo not shown) [Compound 60, 2-Fluoro-6-[(5-methylfurfuryl)amino]-9-(tetrahydro-2H-pyran-2-yl)-9H-purine] | > 167 µM |  | > 167 µM | > 167 µM |  |  |  |  |  |  | 123% |
| COc1ccc(CNc2nc(F)nc3c2ncn3C2CCCCO2)o1 (stereo not shown) [Compound 63] |  |  |  |  | > 167 µM | > 167 µM | > 167 µM | 10^-4 mol.l^-1 | 97 (± 5) % |  |  |
| Oc1ccc(CNc2nc(F)nc3c2ncn3C2CCCCO2)cc1 (stereo not shown) [Compound 66, 2-Fluoro-6-[(4-hydroxybenzyl)amino]-9-(tetrahydro-2H-pyran-2-yl)-9H-purine] | > 167 µM |  | > 167 µM | > 167 µM |  |  |  |  |  |  | 74% |
| CC(C)=CCNc1nc(F)nc2c1ncn2C1CCCCO1 (stereo not shown) [Compound 69] |  |  |  |  | 146 µM | 153 µM | 142 µM | 10^-4 mol.l^-1 | 108 (± 13) % |  |  |
| C/C(=C\CNc1nc(F)nc2c1ncn2C1CCCCO1)CO (stereo not shown) [Compound 70] |  |  |  |  | > 167 µM | > 167 µM | > 167 µM | 10^-4 mol.l^-1 | 126 (± 12) % |  |  |
| c1coc(CNc2ncnc3c2ncn3C2CCCCO2)c1 (stereo not shown) [KTHP, 6-furfurylamino-9-tetrahydropyranylpurine, reference compound] |  |  |  |  |  |  |  | 10^-4 mol.l^-1 | 100 (± 8.6) % |  |  |
| c1coc(CNc2ncnc3[nH]cnc23)c1 [Kinetin, reference compound] | > 167 µM | 164 µM | 148 µM | 133 µM |  |  |  |  |  |  |  |
| CC(C)=CCNc1ncnc2nc[nH]c12 [isopentenyladenine, reference compound] |  |  |  |  | > 167 µM | 134 µM | 124 µM |  |  | 147 µM |  |
| Oc1ccccc1CNc1ncnc2nc[nH]c12 [ortho-topolin, reference compound] |  |  |  |  | 87.5 µM | 108 µM | 94.1 µM |  |  | 94.3 µM |  |
